From patent US12655150B2 (Cedilla Therapeutics, Inc., priority 2021, dated 2026)

Tested on: NCI-H226
Test: 72H TEAD Proliferation Assay (Cell Titer Glo 2.0)
Format: cell-based
Settings: Homo sapiens, NCI-H226, 72 h, CTG 2.0, cell line not given (NCI-H226 responsive, NCI-H28 non-responsive)
Method: 72H TEAD Proliferation Assay.
The effect of TEAD inhibition on cell proliferation was assayed using Cell Titer Glo (CTG) 2.0 to measure response in mesothelioma cell lines NCI-H226 (ATCC, #CRL-5826) and NCI-H28 (ATCC, #CRL-5820).
The 72H TEAD Proliferation assay utilizes Cell Titer-Glo 2.0 (Promega, #G9243) to measure the proliferation of cells in the presence or absence of compound. Cell Titer-Glo 2.0 determines the amount of viable cells by quantifying ATP (an indication of metabolically active cells). It utilizes the conversion of Luciferin to Oxyluciferin and a luminescent signal with the use of ATP to report the quantity of viable cells in culture. Within cells that are continually growing, ATP is being synthesized to meet their metabolic demands, meanwhile the opposite is true for cells that are dying or slowing down their proliferation and either no longer using ATP or are using less, respectively. The NF2-deficient NCI-H226 has been genetically validated as a cell line that is sensitive to TEAD inhibition. The NF2-wild type NCI-H28 has been genetically validated as a cell line that is not sensitive to TEAD inhibition and grows independently of TEAD activity.
Compounds were screened against the responsive NCI-H226 cell line to assess the compounds' ability to inhibit TEAD and cell growth. Compounds were also screened against the non-responsive NCI-H28 cell line to ascertain whether the inhibition of cell growth was due to inhibition of the target TEAD or whether the inhibition was due to off-target cytotoxicity.
• 1) Assay ready plates (ARPs) were prepared by Echo acoustic liquid handler. […] After CTG addition, plates were placed on shaker at 800 RPM for 15 minutes at room temperature and kept in the dark. Luminescence was measured using EnVision multilabel plate reader with ultra-sensitive detection module. • 9) Data Analysis: First background luminescence (no CTG wells) was subtracted from luminescence reading of all wells, then TO luminescence was subtracted from T72 luminescence. To compare anti-proliferative effect of compounds, GI50 was obtained by fitting dose response curves with nonlinear regression curve fit.

| GI50 [nM] | Structure (SMILES) |
| --- | --- |
| 1000 to 5000 | O=C(O)c1ccc2c(c1)nc(N1CCC(C(F)(F)F)C1)c1cccn12 (centres unmarked) [I-10, 4-(3-(Trifluoromethyl)pyrrolidin-1-yl)pyrrolo[1,2-a]quinoxaline-7-carboxylic acid] |
| 1000 to 5000 | C=CC(=O)NCc1cn2ccnc2c(Nc2cccc(OC(F)(F)F)c2)n1 [I-442, N-((8-((3-(trifluoromethoxy)phenyl)amino)imidazo[1,2-a]pyrazin-6-yl)methyl)acrylamide] |
| 5000 to 10000 | COc1cc(C(F)(F)F)ccc1-c1nc2cc(C(=O)O)ccc2n2cccc12 [I-55, 4-(2-Methoxy-4-(trifluoromethyl)phenyl)pyrrolo[1,2-a]quinoxaline-7-carboxylic acid] |
| 1000 to 5000 | O=C(O)c1ccc2c(c1)nc(NC1CCCC(C(F)(F)F)C1)c1cccn12 (centres unmarked) [I-19, 4-((3-(Trifluoromethyl)cyclohexyl)amino)pyrrolo[1,2-a]quinoxaline-7-carboxylic acid] |
| ≤ 1000 | C=CC(=O)NCc1cn2ccnc2c(Nc2ccc(C(F)(F)F)cn2)n1 [I-170, N-((8-((5-(trifluoromethyl)pyridin-2-yl)amino)imidazo[1,2-a]pyrazin-6-yl)methyl)acrylamide] |
| > 10000 | O=C(O)c1ccc2c(c1)nc(N1CCC3(CC1)CC3)c1nccn12 [I-56, 4-(6-Azaspiro[2.5]octan-6-yl)imidazo[1,2-a]quinoxaline-7-carboxylic acid] |
| ≤ 1000 | O=C(O)c1ccc2c(c1)nc(-c1ccc(C(F)(F)F)cc1F)c1cccn12 [I-50, 4-(2-fluoro-4-(trifluoromethyl)phenyl) pyrrolo[1,2-a] quinoxaline-7-carboxylic acid] |
| ≤ 1000 | C=CC(=O)NCc1cc(-c2ccc(C(F)(F)F)cc2)nn2ccnc12 [I-290, N-((6-(4-(trifluoromethyl)phenyl)imidazo[1,2-b]pyridazin-8-yl)methyl)acrylamide] |
| ≤ 1000 | COc1cc(-c2ccc(C(F)(F)F)cc2)nc2cc(C(=O)N[C@@H](CO)c3ccccc3)ccc12 [I-345, (R)—N-(2-hydroxy-1-phenylethyl)-4-methoxy-2-(4-(trifluoromethyl)phenyl)quinoline-7-carboxamide] |
| 5000 to 10000 | COc1cc(-c2ccc(C(F)(F)F)cc2)nc2cc(-c3nnc(C)[nH]3)ccc12 [I-413, 4-methoxy-7-(5-methyl-4H-1,2,4-triazol-3-yl)-2-(4-(trifluoromethyl)phenyl)quinolone] |
| 1000 to 5000 | O=C(O)c1ccc2c(c1)nc(-c1ccc(C(F)(F)F)nc1)c1cccn12 [I-51, 4-(6-(Trifluoromethyl)pyridin-3-yl)pyrrolo[1,2-a]quinoxaline-7-carboxylic acid] |
| 1000 to 5000 | CC(CO)NC(=O)c1ccc2c(c1)nc(-c1ccc(C(C)(C)C)cc1)c1cccn12 (centres unmarked) [I-186, 4-(4-(tert-butyl)phenyl)-N-(1-hydroxypropan-2-yl)pyrrolo[1,2-a]quinoxaline-7-carboxamide] |
| 1000 to 5000 | CC(C)(C)c1ccc(-c2nc3cc(C(=O)O)ccc3n3cc(F)cc23)cc1 [I-108, 4-(4-(tert-Butyl)phenyl)-2-fluoropyrrolo[1,2-a]quinoxaline-7-carboxylic acid] |
| > 10000 | COc1ccc(-c2nc3cc(C(=O)O)ccc3n3cccc23)cc1 [I-46, 4-(4-Methoxyphenyl)pyrrolo[1,2-a]quinoxaline-7-carboxylic acid] |
| ≤ 1000 | CC(C)(C)c1ccc(-c2nc3cc(C(=O)O)cnc3n3cccc23)cc1 [I-139, 6-(4-(tert-Butyl)phenyl)pyrido[3,2-e]pyrrolo[1,2-a]pyrazine-3-carboxylic acid] |
| 1000 to 5000 | COc1cc(-c2ccc(C(F)(F)F)cc2)nc2cc(C3(O)COC3)ccc12 [I-419, 3-(4-methoxy-2-(4-(trifluoromethyl)phenyl)quinolin-7-yl)oxetan-3-ol] |
| 1000 to 5000 | CC(C)(C)c1ccc(-c2nc3cc(NC(=O)CO)ccc3n3cccc23)cc1 [I-203, N-(4-(4-(tert-butyl)phenyl)pyrrolo[1,2-a]quinoxalin-7-yl)-2-hydroxyacetamide] |
| > 10000 | CC(C)(C)c1ccc(-c2ncn3cc(C(=O)O)ccc23)cc1 [I-144, 1-(4-(tert-Butyl)phenyl)imidazo[1,5-a]pyridine-6-carboxylic acid] |
| > 10000 | O=C(O)c1ccc2c(c1)nc(OCc1ccc(C(F)(F)F)cc1)c1cccn12 [I-130, 4-((4-(Trifluoromethyl)benzyl)oxy)pyrrolo[1,2-a]quinoxaline-7-carboxylic acid] |

| GI50 [nM] | Structure (SMILES) |
| --- | --- |
| ≤ 1000 | CC(C)(C)c1ccc(-c2nc3cc(C(N)=O)ccc3n3cccc23)cc1 [I-166, 4-(4-(tert-butyl)phenyl)pyrrolo[1,2-a]quinoxaline-7-carboxamide] |
| ≤ 1000 | CCNS(=O)(=O)c1ccc2c(OC)cc(-c3ccc(C(F)(F)F)cc3)nc2c1 [I-417, N-ethyl-4-methoxy-2-(4-(trifluoromethyl)phenyl)quinoline-7-sulfonamide] |
| > 10000 | CC(C)(C)c1ccc(-c2nc3cc(C(=O)NS(C)(=O)=O)ccc3n3cccc23)cc1 [I-123, 4-(4-(tert-Butyl)phenyl)-N-(methylsulfonyl)pyrrolo[1,2-a]quinoxaline-7-carboxamide] |
| > 10000 | O=C(O)c1ccc2c(c1)nc(-c1ccc(C3CCCCC3)cc1)c1nccn12 [I-62, 4-(4-Cyclohexylphenyl)imidazo[1,2-a]quinoxaline-7-carboxylic acid] |
| 1000 to 5000 | COc1cc(-c2ccc(C(F)(F)F)cc2)nc2cc(S(N)(=O)=O)ccc12 [I-416, 4-Methoxy-2-(4-(trifluoromethyl)phenyl)quinoline-7-sulfonamide] |
| 1000 to 5000 | O=C(O)c1ccc2c(c1)nc(OC1CCC(C(F)(F)F)CC1)c1cccn12 (mixture of isomers) [I-127, 4-((4-(Trifluoromethyl)cyclohexyl)oxy)pyrrolo[1,2-a]quinoxaline-7-carboxylic acid] |
| ≤ 1000 | COc1nc(-c2ccc(C(F)(F)F)cc2)nc2cc(C(=O)N[C@H](C)CO)ccc12 [I-434, (R)—N-(1-hydroxypropan-2-yl)-4-methoxy-2-(4-(trifluoromethyl)phenyl)quinazoline-7-carboxamide] |
| ≤ 1000 | C=CC(=O)Nc1ccc2cnc(-c3ccc(C(C)(C)C)cc3)nc2c1 [I-80, N-(2-(4-(tert-butyl)phenyl)quinazolin-7-yl)acrylamide] |
| ≤ 1000 | Cc1cn2cc(CNC(=O)/C=C/CF)nc(-c3ccc(C(F)(F)F)cc3)c2n1 [I-248, (E)-4-fluoro-N-((2-methyl-8-(4-(trifluoromethyl)phenyl)imidazo[1,2-a]pyrazin-6-yl)methyl)but-2-enamide] |
| 1000 to 5000 | O=C(O)c1cc2nc(-c3ccc(C(F)(F)F)cc3)c3ccccc3n2c1 [I-421, 5-(4-(trifluoromethyl)phenyl)pyrrolo[1,2-a]quinazoline-2-carboxylic acid] |
| 1000 to 5000 | CC(C)(C)c1ccc(-c2nc3cc(C(=O)NCCO)ccc3n3cccc23)cc1 [I-185, 4-(4-(tert-butyl)phenyl)-N-(2-hydroxyethyl)pyrrolo[1,2-a]quinoxaline-7-carboxamide] |
| ≤ 1000 | C=CC(=O)Nc1ccc2c(c1)nc(-c1ccc(C(F)(F)F)cc1F)c1cccn12 [I-114, N-(4-(2-Fluoro-4-(trifluoromethyl)phenyl)pyrrolo[1,2-a]quinoxalin-7-yl) acrylamide] |
| 1000 to 5000 | CC(=O)Nc1ccc2c(c1)nc(-c1ccc(C(C)(C)C)cc1)c1nccn12 [I-135, N-(4-(4-(tert-butyl)phenyl)imidazo[1,2-a]quinoxalin-7-yl)acetamide] |
| ≤ 1000 | Cc1cc(-c2ccc(C(F)(F)F)cc2F)nc2cc(C(=O)O)ccc12 [I-87, 2-(2-Fluoro-4-(trifluoromethyl)phenyl)-4-methylquinoline-7-carboxylic acid] |
| 1000 to 5000 | O=C(O)c1ccc2c(c1)nc(N1CCC3(CC1)CC(F)(F)C3)c1cccn12 [I-32, 4-(2,2-Difluoro-7-azaspiro [3.5]nonan-7-yl) pyrrolo[1,2-a] quinoxaline-7-carboxylic acid] |
| 1000 to 5000 | C=CC(=O)NCc1cn2ccnc2c(N2CCC3(CC2)CC3)n1 [I-437, N-((8-(6-azaspiro[2.5]octan-6-yl)imidazo[1,2-a]pyrazin-6-yl)methyl)acrylamide] |
| ≤ 1000 | CC[C@H](CO)NC(=O)c1ccc2c(OC)cc(-c3ccc(C(F)(F)F)cc3Cl)nc2c1 [I-341, (R)-2-(2-chloro-4-(trifluoromethyl)phenyl)-N-(1-hydroxybutan-2-yl)-4-methoxyquinoline-7-carboxamide] |
| 5000 to 10000 | CN(C)C(=O)c1ccc2c(c1)nc(-c1ccc(C(C)(C)C)cc1)c1nccn12 [I-74, 4-(4-(tert-Butyl)phenyl)-N,N-dimethylimidazo[1,2-a]quinoxaline-7-carboxamide] |
| > 10000 | CC(C)(C)c1ccc(-c2nc(C(=O)O)cn3cnnc23)cc1 [I-93, 8-(4-(tert-Butyl)phenyl)-[1,2,4]triazolo[4,3-a]pyrazine-6-carboxylic acid] |
